Experimental findings from ChEMBL document CHEMBL1144609, “N-Hydroxythiosemicarbazones: synthesis and in vitro antitubercular activity” (Bioorg Med Chem Lett, 2007) are described below.

Experiment [1] concerns Mycobacterium tuberculosis. Kind of experiment: Antimycobacterial activity against Mycobacterium tuberculosis H37Rv by agar dilution method. It counts as functional. (In agar dilution, organisms are placed on agar that contains the substance at set levels.)
In experiment [2] the test system is Vero. Put plainly: Cytotoxicity against Vero cells after 72 hrs by MTT assay. To be noted: Chlorocebus sabaeus. It counts as cell-based. (In general: Tetrazolium dyes change colour on reduction, which living cells bring about.)
A short description of experiment [3]: Selectivity index, ratio of IC50 for Vero cells to MIC for Mycobacterium tuberculosis H37Rv. Type of experiment: functional.

Values after ≈ are worked out from the molar mass of the structure shown.

Broadly, the MIC is the smallest concentration in the dilution series that meets the test's criterion for growth inhibition. Lower therefore signals inhibition by little substance. `CN(C)c1ccc(/C=N/NC(=S)NO)cc1` came in with a minimum inhibitory concentration (MIC) in experiment [1] of 52.5 µM (≈ 12.5 µg/mL).

Take `COc1ccc(/C=N/NC(=S)NO)cc1`: the MIC in experiment [1] was 14.9 µM (≈ 3.37 µg/mL).

In the case of `Cc1ccc(/C=N/NC(=S)NO)cc1`, the MIC in experiment [1] was determined as 13 µM (≈ 2.71 µg/mL).

In experiment [1], `ONC(=S)N/N=C/c1ccc(Cl)cc1` gave a minimum inhibitory concentration (MIC) of 13 µM (≈ 2.99 µg/mL). That is a double-digit micromolar value.

Regarding `ONC(=S)N/N=C/c1ccccc1O`, the MIC in experiment [1] was 29.6 µM (≈ 6.25 µg/mL).

The IC50 is the concentration needed to halve the response being measured. A higher IC50 goes with a need for much substance. `O=[N+]([O-])c1ccc(/C=N/NC(=S)NO)cc1`: the lowest concentration to inhibit growth in experiment [1] (MIC) was 6.49 µM (≈ 1.56 µg/mL). Further, the IC50 in experiment [2] is > 260 µM.

In the case of `C/C(=N\NC(=S)NO)c1ccccc1`, the MIC in experiment [1] worked out at 14.9 µM (≈ 3.13 µg/mL). This counts as double-digit micromolar.

`C/C(=N\NC(=S)NO)c1ccc(C)cc1`: in experiment [1], the MIC was determined as 6.98 µM (≈ 1.56 µg/mL). Further, in experiment [2], the IC50 was > 280 µM.

On to `C/C(=N\NC(=S)NO)c1ccc(Cl)cc1`, for which the MIC in experiment [1] is 3.2 µM (≈ 0.78 µg/mL). Moreover, the IC50 in experiment [2] was > 256 µM.

For the compound `C/C(=N\NC(=S)NO)c1ccc([N+](=O)[O-])cc1`, in experiment [1], the lowest concentration to inhibit growth (MIC) was 0.78 µM (≈ 0.198 µg/mL). The IC50 in experiment [2] was > 246 µM.

`ONC(=S)N/N=C(\c1ccccc1)c1ccc(Br)cc1` yielded an MIC in experiment [1] of 0.28 µM (≈ 0.0981 µg/mL). The IC50 in experiment [2] is > 178 µM. Besides, the Selectivity index in experiment [3] is recorded as >625.

The compound `O=C1Nc2ccc(F)cc2/C1=N/NC(=S)NO` came in with an MIC in experiment [1] of 24.6 µM (≈ 6.25 µg/mL).

The compound `COc1cc(/C=N/NC(=S)NO)ccc1O` displayed a minimal inhibitory concentration (MIC) in experiment [1] of 27.2 µM (≈ 6.57 µg/mL).

On to `ONC(=S)N/N=C/c1ccccc1`, for which 64 µM (≈ 12.5 µg/mL) was the least that counted as inhibitory in experiment [1] (MIC).

Regarding `ONC(=S)N/N=C/c1ccc(O)cc1`, in experiment [1], the MIC came to 29.6 µM (≈ 6.25 µg/mL).

On to `O=[N+]([O-])c1ccccc1/C=N/NC(=S)NO`, for which the MIC in experiment [1] is 6.49 µM (≈ 1.56 µg/mL). Besides, the IC50 in experiment [2] was > 260 µM.

In experiment [1], `C/C(=N\NC(=S)NO)c1ccccc1O` showed a minimal inhibitory concentration (MIC) of 13.9 µM (≈ 3.13 µg/mL). This lies in the double-digit micromolar range.

Turning to `O=C1Nc2ccccc2/C1=N/NC(=S)NO`, inhibition of growth in experiment [1] (MIC) required 64 µM (≈ 15.1 µg/mL).

In the case of `CC[C@@H](CO)NCCN[C@@H](CC)CO` [ETHAMBUTOL], the MIC in experiment [1] turned out to be 15.3 µM (≈ 3.13 µg/mL). Moreover, in experiment [2], the half-inhibitory concentration (IC50) was > 306 µM.

`NNC(=O)c1ccncc1` [ISONIAZID] had a minimal inhibitory concentration (MIC) in experiment [1] of 0.72 µM (≈ 0.0987 µg/mL). The IC50 in experiment [2] is > 456 µM.

In experiment [1], `CO[C@H]1/C=C/O[C@@]2(C)Oc3c(C)c(O)c4c(O)c(c(/C=N/N5CCN(C)CC5)c(O)c4c3C2=O)NC(=O)/C(C)=C\C=C\[C@H](C)[C@H](O)[C@@H](C)[C@@H](O)[C@@H](C)[C@H](OC(C)=O)[C@@H]1C` [RIFAMPIN] had an MIC of 0.24 µM (≈ 0.198 µg/mL). For the same compound, the IC50 in experiment [2] was > 75.9 µM.
